# “And” between values parts separate entries of the source, which are not always exact repeats. Equal entries are not always repeated. Where a SMILES comes first, the peptide text is derived from it. [ ]: non-standard residue; d: D form. Hyp = O=C(O)[C@@H]1C[C@@H](O)CN1
# Experiments:
# IL-6 = assay: Example 9 Luminex, LPS hPBMCs: IL-6; type: cell-based, human; settings: Bead IL-6, PBMC + LPS(5 ug/ml)
# Experimental: (§1) Treatment Human PBMCs were pretreated with YY-101, YDE-011 and YDE-043 or reference compound; Xiidra® at various concentration (ranging from 1 nM to 100 uM) for 2 h before stimulation. An equal volume of 0.5% DMSO was used as a vehicle control. Then, the cells were treated with LPS at 5 ug/ml. The supernatants from treated cells were harvested at 24 h and placed in a 96 well for Luminex cytokine & chemokine profiling using a Luminex 200 multiplex assay (Luminex; R&D system, USA).
# (§2) The main study arm with triplicate wells per group in a 24-well plate: • 1. Blank • 2. PBMC: 0.5% DMSO • 3. PBMC+LPS (5 ug/ml) • 4. PBMC+YY-101 100 uM • 5. PBMC+YY-101 10 uM • 6. PBMC+YY-101 1 uM • 7. PBMC+YY-101 0.1 uM • 8. PBMC+YY-101 0.01 uM • 9. PBMC+LPS (5 ug/ml)+Xiidra®100 uM • 10. PBMC+LPS (5 ug/ml)+Xiidra® 10 uM • 11. PBMC+LPS (5 ug/ml)+Xiidra® 1 uM • 12. PBMC+LPS (5 ug/ml)+Xiidra®0.1 uM • 13. PBMC+LPS (5 ug/ml)+Xiidra®0.01 uM • 14. PBMC+LPS (5 ug/ml)+Xiidra®0.001 uM • 15. PBMC+LPS (5 ug/ml)+YY-101 100 uM • 16. PBMC+LPS (5 ug/ml)+YY-101 10 uM • 17. PBMC+LPS (5 ug/ml)+YY-101 1 uM • 18. PBMC+LPS (5 ug/ml)+YY-101 0.1 uM • 19. PBMC+LPS (5 ug/ml)+YY-101 0.01 uM • 20. PBMC+LPS (5 ug/ml)+YY-101 0.001 uM • 21. PBMC+LPS (5 ug/ml)+YDE-011 100 uM • 22. PBMC+LPS (5 ug/ml)+YDE-011 10 uM • 23. PBMC+LPS (5 ug/ml)+YDE-011 1 uM • 24. PBMC+LPS (5 ug/ml)+YDE-011 0.1 uM • 25. PBMC+LPS (5 ug/ml)+YDE-011 0.01 uM • 26. PBMC+LPS (5 ug/ml)+YDE-011 0.001 uM • 27. PBMC+LPS (5 ug/ml)+YDE-043 100 uM • 28. PBMC+LPS (5 ug/ml)+YDE-043 10 uM • 29. PBMC+LPS (5 ug/ml)+YDE-043 1 uM • 30. PBMC+LPS (5 ug/ml)+YDE-043 0.1 uM • 31. PBMC+LPS (5 ug/ml)+YDE-043 0.01 uM • 32. PBMC+LPS (5 ug/ml)+YDE-043 0.001 uM
# (§3) Multiplex assay was used to measure 30 cytokines and chemokines. The 1:2, 1:10 and 1:200 diluted cell supernatant and serial dilution of the standard were dispensed into a 96 well plate at 50 ul/well. Then, the pre-mixed cocktail of antibody-coated magnetic beads was dispensed at 50 ul/well and incubated at room temperature for 2 h in a horizontal orbital microplate shaker at 800±500 rpm. The beads were washed using a magnetic device to prevent loss. The biotin-antibody was dispensed in 50 ul of each well and incubated at room temperature for 1 h in a shaker at 800±500 rpm. After washing, streptavidin-PE was added at 50 ul/well and incubated at room temperature for 30 min in a shaker under the same conditions. Finally, after washing, wash buffer (100 ul/well) was added to the plate and incubated in a shaker for 2 min. The Luminex™ 200 setting were set according to the manufacturer's protocol. The data was calculated with a standard five-parameter logistic nonlinear regression analysis of the data (xPonent software 4.2, USA). The levels of cytokine/chemokine are normalized to the live cell counts (1×10^5 cells/mL) and presented as concentrations per mL (pg/mL or ng/mL).
# GM-CSF = assay: Example 9 Luminex, LPS hPBMCs: GM-CSF; type: cell-based, human
# Experimental: as §1, §2, §3
# [1] = PBMC + LPS(5 ug/ml) + test article 0.001 uM, Mean
# [2] = PBMC + LPS(5 ug/ml) + test article 0.001 uM, single replicates
# [3] = PBMC + LPS(5 ug/ml) + test article 0.01 uM, Mean
# [4] = PBMC + LPS(5 ug/ml) + test article 0.01 uM, single replicates
# [5] = PBMC + LPS(5 ug/ml) + test article 0.1 uM, Mean
# [6] = PBMC + LPS(5 ug/ml) + test article 0.1 uM, single replicates
# [7] = PBMC + LPS(5 ug/ml) + test article 1 uM, Mean
# [8] = PBMC + LPS(5 ug/ml) + test article 1 uM, single replicates
# [9] = PBMC + LPS(5 ug/ml) + test article 10 uM, Mean
# [10] = PBMC + LPS(5 ug/ml) + test article 10 uM, single replicates
# [11] = PBMC + LPS(5 ug/ml) + test article 100 uM, Mean
# [12] = PBMC + LPS(5 ug/ml) + test article 100 uM, single replicates
smiles,measurement,setting,value
CC(C)C[C@H](NC(=O)[C@H](CCC(N)=O)NC(=O)CNC(=O)[C@@H]1C[C@@H](O)CN1)C(=O)NCC(=O)O [YDE-043] (H-[Hyp]GQLG-OH; N-terminus and C-terminus assumed),Concentration,"IL-6; 0.001 uM, Mean",7090.4 pg/mL
same,MFI,"IL-6; 0.001 uM, Mean",197.1
same,conc/live cell,"IL-6; 0.001 uM, Mean",1434.2 pg/10^5
same,Concentration,"IL-6; 0.001 uM, single replicates",6355.1 pg/mL and 7578.4 pg/mL and 7337.9 pg/mL
same,MFI,"IL-6; 0.001 uM, single replicates",175.8 and 211.3 and 204.3
same,conc/live cell,"IL-6; 0.001 uM, single replicates",1444.3 pg/10^5 and 1263.1 pg/10^5 and 1595.2 pg/10^5
same,Concentration,"IL-6; 0.01 uM, Mean",6942.0 pg/mL
same,MFI,"IL-6; 0.01 uM, Mean",192.8
same,conc/live cell,"IL-6; 0.01 uM, Mean",1327.4 pg/10^5
same,Concentration,"IL-6; 0.01 uM, single replicates",7062.6 pg/mL and 7011.0 pg/mL and 6752.4 pg/mL
same,MFI,"IL-6; 0.01 uM, single replicates",196.3 and 194.8 and 187.3
same,conc/live cell,"IL-6; 0.01 uM, single replicates",1569.5 pg/10^5 and 1062.3 pg/10^5 and 1350.5 pg/10^5
same,Concentration,"IL-6; 0.1 uM, Mean",6590.8 pg/mL
same,MFI,"IL-6; 0.1 uM, Mean",182.6
same,conc/live cell,"IL-6; 0.1 uM, Mean",1223.6 pg/10^5
same,Concentration,"IL-6; 0.1 uM, single replicates",6528.0 pg/mL and 6147.3 pg/mL and 7097.1 pg/mL
same,MFI,"IL-6; 0.1 uM, single replicates",180.8 and 169.8 and 197.3
same,conc/live cell,"IL-6; 0.1 uM, single replicates",1305.6 pg/10^5 and 1097.7 pg/10^5 and 1267.3 pg/10^5
same,Concentration,"IL-6; 1 uM, Mean",6992.5 pg/mL
same,MFI,"IL-6; 1 uM, Mean",194.3
same,conc/live cell,"IL-6; 1 uM, Mean",1321.1 pg/10^5
same,Concentration,"IL-6; 1 uM, single replicates",7131.5 pg/mL and 6164.6 pg/mL and 7681.3 pg/mL
same,MFI,"IL-6; 1 uM, single replicates",198.3 and 170.3 and 214.3
same,conc/live cell,"IL-6; 1 uM, single replicates",1229.6 pg/10^5 and 1284.3 pg/10^5 and 1449.3 pg/10^5
same,Concentration,"IL-6; 10 uM, Mean",9513.9 pg/mL
same,MFI,"IL-6; 10 uM, Mean",268.1
same,conc/live cell,"IL-6; 10 uM, Mean",1764.4 pg/10^5
same,Concentration,"IL-6; 10 uM, single replicates",7303.5 pg/mL and 14554.8 pg/mL and 6683.4 pg/mL
same,MFI,"IL-6; 10 uM, single replicates",203.3 and 415.8 and 185.3
same,conc/live cell,"IL-6; 10 uM, single replicates",1404.5 pg/10^5 and 2695.3 pg/10^5 and 1193.5 pg/10^5
same,Concentration,"IL-6; 100 uM, Mean",7286.3 pg/mL
same,MFI,"IL-6; 100 uM, Mean",202.8
same,conc/live cell,"IL-6; 100 uM, Mean",1157.1 pg/10^5
same,Concentration,"IL-6; 100 uM, single replicates",7389.4 pg/mL and 7183.1 pg/mL
same,MFI,"IL-6; 100 uM, single replicates",205.8 and 199.8
same,conc/live cell,"IL-6; 100 uM, single replicates",1191.8 pg/10^5 and 1122.4 pg/10^5
same,GM-CSF Concentration,GM-CSF; [1],96.8 pg/mL
same,GM-CSF conc/live cell,GM-CSF; [1],19.6 pg/10^5
same,GM-CSF Concentration,GM-CSF; [2],85.3 pg/mL and 103.8 pg/mL and 101.3 pg/mL
same,GM-CSF conc/live cell,GM-CSF; [2],19.4 pg/10^5 and 17.3 pg/10^5 and 22.0 pg/10^5
same,GM-CSF Concentration,GM-CSF; [3],92.9 pg/mL
same,GM-CSF conc/live cell,GM-CSF; [3],17.9 pg/10^5
same,GM-CSF Concentration,GM-CSF; [4],94.6 pg/mL and 86.1 pg/mL and 97.9 pg/mL
same,GM-CSF conc/live cell,GM-CSF; [4],21.0 pg/10^5 and 13.1 pg/10^5 and 19.6 pg/10^5
same,GM-CSF Concentration,GM-CSF; [5],92.5 pg/mL
same,GM-CSF conc/live cell,GM-CSF; [5],17.1 pg/10^5
same,GM-CSF Concentration,GM-CSF; [6],87.8 pg/mL and 91.2 pg/mL and 98.4 pg/mL
same,GM-CSF conc/live cell,GM-CSF; [6],17.6 pg/10^5 (2×) and 16.3 pg/10^5
same,GM-CSF Concentration,GM-CSF; [7],91.6 pg/mL
same,GM-CSF conc/live cell,GM-CSF; [7],17.4 pg/10^5
same,GM-CSF Concentration,GM-CSF; [8],89.5 pg/mL and 92.1 pg/mL and 93.3 pg/mL
same,GM-CSF conc/live cell,GM-CSF; [8],15.4 pg/10^5 and 19.2 pg/10^5 and 17.6 pg/10^5
same,GM-CSF Concentration,GM-CSF; [9],101.0 pg/mL
same,GM-CSF conc/live cell,GM-CSF; [9],18.7 pg/10^5
same,GM-CSF Concentration,GM-CSF; [10],102.1 pg/mL and 96.3 pg/mL and 104.6 pg/mL
same,GM-CSF conc/live cell,GM-CSF; [10],19.6 pg/10^5 and 17.8 pg/10^5 and 18.7 pg/10^5
same,GM-CSF Concentration,GM-CSF; [11],137.2 pg/mL
same,GM-CSF conc/live cell,GM-CSF; [11],21.8 pg/10^5
same,GM-CSF Concentration,GM-CSF; [12],140.1 pg/mL and 134.4 pg/mL
same,GM-CSF conc/live cell,GM-CSF; [12],22.6 pg/10^5 and 21.0 pg/10^5
